Experimental data taken from PubChem BioAssay (NCI).
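Cells were grown in 96-well plates and exposed to each compound for 48 hours at five concentrations; endpoints were interpolated linearly between bracketing concentrations, or set to the highest concentration if not reached. GI50 = concentration required for 50% inhibition of growth. TGI denotes the concentration required for complete inhibition of growth.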

Assays:
Test in all cases: NCI tumour cell line growth inhibition, 48 h
DU-145 prostate = tested on: DU-145 prostate
A498 renal = tested on: A498 renal
HL-60(TB) leukemia = tested on: HL-60(TB) leukemia
PC-3 prostate = tested on: PC-3 prostate
SNB-19 CNS = tested on: SNB-19 CNS
ACHN renal = tested on: ACHN renal
RPMI-8226 leukemia = tested on: RPMI-8226 leukemia
UACC-257 melanoma = tested on: UACC-257 melanoma
NCI-H522 lung = tested on: NCI-H522 lung
HCT-116 colon = tested on: HCT-116 colon

Row | Structure (SMILES) | GI50 (DU-145 prostate) | TGI (DU-145 prostate) | GI50 (A498 renal) | TGI (A498 renal) | GI50 (HL-60(TB) leukemia) | TGI (HL-60(TB) leukemia) | GI50 (PC-3 prostate) | TGI (PC-3 prostate) | GI50 (SNB-19 CNS) | TGI (SNB-19 CNS) | GI50 (ACHN renal) | TGI (ACHN renal) | GI50 (RPMI-8226 leukemia) | TGI (RPMI-8226 leukemia) | GI50 (UACC-257 melanoma) | TGI (UACC-257 melanoma) | GI50 (NCI-H522 lung) | TGI (NCI-H522 lung) | GI50 (HCT-116 colon) | TGI (HCT-116 colon)
1 | C1CCC([PH+](C2CCCCC2)C2CCCCC2[PH+](C2CCCCC2)C2CCCCC2)CC1.[Au].[CH-]1CCCCC1CC1CCCC[N-]1 (stereo not drawn) | 0.363 µM | 2.2 µM | 0.145 µM | 0.673 µM | 0.277 µM | 0.833 µM | 0.283 µM | 1.93 µM | 0.327 µM | 1.46 µM | 0.902 µM | 2.1 µM | 0.186 µM | 0.944 µM | 0.323 µM | 1.94 µM | 0.29 µM | 1.56 µM |  | 
2 | FC(F)(F)c1ccc(-c2cnc(-c3ncon3)nc2NC2CCCCCC2)cc1 | 63.3 µM | > 100 µM | 42.9 µM | > 100 µM | 22.3 µM | 48 µM | 24.6 µM | 86.5 µM | 29.2 µM | > 100 µM | 48.6 µM | > 100 µM | 18.4 µM | 49.3 µM | 53.2 µM | > 100 µM | 14.2 µM | 82.6 µM | 33.9 µM | > 100 µM
3 | N#CC1(C(N)=O)C(c2ccc(Cl)cc2)CC(=O)CC1c1ccc(Cl)cc1 (stereo not drawn) | 15.6 µM | 29 µM | 14.7 µM | 27.8 µM | 20.2 µM | 51.6 µM | 15.9 µM | 33.7 µM | 17.7 µM | 33.5 µM | 21.8 µM | 57.8 µM | 18.1 µM | 50.7 µM | 17.5 µM | 36 µM | 14.2 µM | 29.5 µM | 14.8 µM | 28 µM
4 | CN[C@@H](C)C(=O)N[C@H](C(=O)N1CCC[C@H]1C(=O)Nc1sc(-c2ncco2)nc1-c1ccccc1)C1CCCCC1 | > 95.8 µM | > 100 µM | 26.6 µM | > 88 µM | 16.9 µM | 39.1 µM | 42 µM | > 100 µM | 30 µM | 98.7 µM | 19.3 µM | > 54.9 µM | 25.1 µM | > 89.9 µM | 17.5 µM | 34 µM | 10.2 µM | 28.1 µM | 25.6 µM | > 85.4 µM
5 | O=S(=O)(Nc1cc(Sc2cccc3cccnc23)c(O)c2ccccc12)c1ccc(F)cc1 | 1.27 µM | 3.81 µM | 3.96 µM | 24.1 µM | 2.12 µM | 5.88 µM | 0.74 µM | 12.1 µM | 2.55 µM | 17.1 µM | 1.34 µM | 7.78 µM | 2.09 µM | 7.36 µM | 1.75 µM | 4.56 µM | 1.4 µM | 3.9 µM | 0.604 µM | 2.13 µM
6 | Cc1ccc(/C=N\NC(=O)c2[nH]c3ccc(F)cc3c2-c2ccccc2)cc1 | 0.0251 µM | 0.0622 µM | 0.0387 µM | 24.5 µM | 0.0291 µM | 0.121 µM | 0.0345 µM | 20.6 µM | 0.0493 µM | > 100 µM | 0.0538 µM | > 100 µM | 0.0395 µM | > 37.2 µM | 0.493 µM | > 100 µM | 0.014 µM | 0.569 µM | 0.027 µM | 0.855 µM
7 | O=C(OCc1ccc2ccccc2n1)c1cn(C2CC2)c2cc(N3CCN(Cc4ccc5ccccc5n4)CC3)c(F)cc2c1=O | 6.09 µM | > 100 µM | 25.2 µM | > 82.1 µM | > 100 µM | > 100 µM | > 44.6 µM | > 80.2 µM | > 81.6 µM | > 100 µM | > 72.4 µM | > 100 µM | > 36.3 µM | > 64.2 µM | > 94.2 µM | > 100 µM | > 94.3 µM | > 100 µM | > 53.2 µM | > 95.3 µM
8 | CCCN(CCS(C)(=O)=O)Cc1ccc(-c2ccc3ncnc(Nc4ccc(OCc5cccc(F)c5)c(Cl)c4)c3c2)o1 | > 22.4 µM | > 25 µM | > 13.6 µM | > 25 µM | 8.14 µM | > 25 µM | > 25 µM | > 25 µM | > 25 µM | > 25 µM | 1.23 µM | > 25 µM | > 20.8 µM | > 25 µM | > 25 µM | > 25 µM | 0.525 µM | > 25 µM | > 25 µM | > 25 µM
9 | CCOc1ccccc1C(=O)N1CCN(c2cc(Cl)cc(Cl)c2)CC1 | 0.0468 µM | 14 µM | 0.0288 µM | 4.36 µM | 0.0254 µM | 0.078 µM | 0.0346 µM | 12.6 µM | 0.0432 µM | 15.8 µM | 0.051 µM | 14.6 µM | 0.0369 µM | 5.32 µM | 4.19 µM | 25.8 µM | 0.0142 µM | 0.358 µM | 0.0325 µM | 4.02 µM
